Measured values from patent US20230072683A1, “PYRIDO-PYRIMIDIN DERIVATIVES AND PHARMACEUTICAL COMPOSITION, FOR USE IN PREVENTING OR TREATING PI3 KINASE RELATED DISEASES, COMPRISING SAME AS ACTIVE INGREDIENT” (BORYUNG PHARMACEUTICAL CO., LTD, priority 2019, published 2023).

Assays:
[1] = biological target: PI3K-δ (PI3K(p1108/p857) (h)) (Homo sapiens, UniProt O00329); assay: Evaluation of inhibitory activity against PI3K-δ (HTRF kinase assay); assay type: biochemical; settings: for inhibition at 0.01 µM: compound concentration 0.01 μM, read-out: EXP_VALUE(% Inhibition) PI3K-δ 0.01 μM; for inhibition at 0.1 µM: compound concentration 0.1 μM, read-out: EXP_VALUE(% Inhibition) PI3K-δ 0.1 μM
Sequence of PI3K-δ (PI3K(p1108/p857) (h)) (O00329 whole entry, the tested form may be a part): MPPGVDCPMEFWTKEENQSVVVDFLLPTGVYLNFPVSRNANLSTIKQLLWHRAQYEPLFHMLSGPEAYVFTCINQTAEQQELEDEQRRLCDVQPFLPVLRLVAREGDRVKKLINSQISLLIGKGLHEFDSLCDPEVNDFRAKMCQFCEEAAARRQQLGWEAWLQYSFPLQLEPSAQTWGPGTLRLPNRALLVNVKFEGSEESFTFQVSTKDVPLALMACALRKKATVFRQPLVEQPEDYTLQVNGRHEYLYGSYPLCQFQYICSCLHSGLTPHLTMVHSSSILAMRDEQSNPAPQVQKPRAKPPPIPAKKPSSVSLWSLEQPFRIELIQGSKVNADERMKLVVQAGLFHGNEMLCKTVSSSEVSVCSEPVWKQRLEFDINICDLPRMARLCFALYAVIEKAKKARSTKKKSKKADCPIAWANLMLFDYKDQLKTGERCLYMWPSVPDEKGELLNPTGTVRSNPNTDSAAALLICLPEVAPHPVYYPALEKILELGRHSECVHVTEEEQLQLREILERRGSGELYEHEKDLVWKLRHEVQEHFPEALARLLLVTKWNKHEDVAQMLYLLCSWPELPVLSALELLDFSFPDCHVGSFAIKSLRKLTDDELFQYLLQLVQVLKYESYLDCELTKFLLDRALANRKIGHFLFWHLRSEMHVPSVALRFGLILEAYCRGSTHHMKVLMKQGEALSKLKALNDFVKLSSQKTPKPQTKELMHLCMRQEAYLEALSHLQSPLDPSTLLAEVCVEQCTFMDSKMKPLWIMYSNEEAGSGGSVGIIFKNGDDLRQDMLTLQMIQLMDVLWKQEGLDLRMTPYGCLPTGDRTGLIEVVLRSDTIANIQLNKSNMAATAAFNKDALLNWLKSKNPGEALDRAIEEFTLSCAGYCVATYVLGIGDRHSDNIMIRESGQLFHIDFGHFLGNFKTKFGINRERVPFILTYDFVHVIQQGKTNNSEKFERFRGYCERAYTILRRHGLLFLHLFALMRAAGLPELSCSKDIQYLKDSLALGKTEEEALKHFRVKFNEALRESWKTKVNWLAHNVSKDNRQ
Sequence of PI3K-δ (PI3K(p1108/p857) (h)) (P27986 whole entry partner, the tested form may be a part): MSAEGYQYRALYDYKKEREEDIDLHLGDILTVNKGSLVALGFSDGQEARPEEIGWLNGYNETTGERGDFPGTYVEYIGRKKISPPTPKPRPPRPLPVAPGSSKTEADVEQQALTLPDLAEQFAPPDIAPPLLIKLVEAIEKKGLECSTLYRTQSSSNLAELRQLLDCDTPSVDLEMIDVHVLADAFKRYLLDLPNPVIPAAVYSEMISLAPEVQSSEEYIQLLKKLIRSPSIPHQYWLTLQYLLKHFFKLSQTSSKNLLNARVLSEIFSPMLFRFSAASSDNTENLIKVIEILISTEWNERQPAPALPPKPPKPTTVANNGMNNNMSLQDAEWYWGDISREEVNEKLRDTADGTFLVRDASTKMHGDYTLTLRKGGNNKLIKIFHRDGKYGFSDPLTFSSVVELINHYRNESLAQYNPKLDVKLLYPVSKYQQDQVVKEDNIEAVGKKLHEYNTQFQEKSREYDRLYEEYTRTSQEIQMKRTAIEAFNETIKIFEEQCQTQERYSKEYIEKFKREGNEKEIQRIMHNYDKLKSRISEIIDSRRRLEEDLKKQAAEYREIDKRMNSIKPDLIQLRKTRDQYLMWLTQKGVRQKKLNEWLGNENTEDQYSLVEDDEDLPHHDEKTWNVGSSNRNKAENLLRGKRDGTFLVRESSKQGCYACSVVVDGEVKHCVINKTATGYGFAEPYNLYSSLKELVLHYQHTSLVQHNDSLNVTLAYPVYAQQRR
Method in brief: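 HTRF read-out (665/620 nm ratio ×10000) used Eu-labelled anti-GST, GST-tagged GRP1 PH domain and streptavidin-allophycocyanin after EDTA/PIP3 stop.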

[2] = biological target: DNA-PK(h) (Homo sapiens, UniProt P78527); assay: Evaluation of inhibitory activity against DNA-PK (HTRF kinase assay, GST-cMyc-p53 substrate); assay type: biochemical; settings: for inhibition at 0.01 µM: compound concentration 0.01 μM, read-out: EXP_VALUE(% Inhibition) DNA-PK(h) 0.01 μM; for inhibition at 0.1 µM: compound concentration 0.1 μM, read-out: EXP_VALUE(% Inhibition) DNA-PK(h) 0.1 μM
Method in brief: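 p53 Ser15 phosphorylation by human DNA-PK was measured by time-resolved FRET ratio (665/620 nm ×10000) using Eu-labelled anti-phospho-Ser15 and d2 anti-GST antibodies. Substrate GST-cMyc-p53 at 50 μM; Mg/ATP-initiated, 30 min at room temperature, EDTA stop.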

Row | inhibition at 0.01 µM [1] | inhibition at 0.01 µM [2] | inhibition at 0.1 µM [1] | inhibition at 0.1 µM [2] | SMILES
1 | 99% | 54% | 109% | 89% | C[C@H](Nc1ncnc2[nH]ccc(=O)c12)c1c(Cl)c2cccc(-c3ccccc3)c2c(=O)n1-c1ccccc1 [Example 62, (S)-4-((1-(4-chloro-1-oxo-2,8-diphenyl-1,2-dihydroisoquinolin-3-yl)ethyl)amino)pyrido[2,3-d]pyrimidin-5(8H)-one]
2 | 89% | 58% | 110% | 90% | C[C@H](Nc1ncnc2[nH]ccc(=O)c12)c1c(C2CC2)c2cccc(Cl)c2c(=O)n1-c1ccccc1 [Example 65, (S)-4-((1-(8-chloro-4-cyclopropyl-1-oxo-2-phenyl-1,2-dihydroisoquinolin-3-yl)ethyl)amino)pyrido[2,3-d]pyrimidin-5(8H)-one]
3 | 82% | 56% | 92% | 86% | Cc1cc(C#N)ccc1-c1cccc2c(Cl)c([C@H](C)Nc3ncnc4[nH]ccc(=O)c34)n(-c3ccccc3)c(=O)c12 [Example 67, (S)-4-(4-chloro-1-oxo-3-(1-((5-oxo-5,8-dihydropyrido[2,3-d]pyrimidin-4-yl)amino)ethyl)-2-phenyl-1,2-dihydroisoquinolin-8-yl)-3-methylbenzonitrile]
4 | 3.3% | 3% | 14.5% | 2.7% | C[C@H](Nc1ncnc2[nH]ccc(=O)c12)c1c(Cl)c2cccc(-c3cnc(Cl)c4ccccc34)c2c(=O)n1-c1ccccc1 [Example 69, (S)-1,4′-dichloro-3′-(1-((5-oxo-5,8-dihydropyrido[2,3-d]pyrimidin-4-yl)amino)ethyl)-2′-phenyl-(4,8′-biisoquinolin)-1′(2′H)-one]
5 | 72% | 53% | 86% | 92% | C[C@H](Nc1ncnc2[nH]ccc(=O)c12)c1c(Cl)c2cccc(-c3ccc4[nH]ccc4c3)c2c(=O)n1-c1ccccc1 [Example 73, (S)-4-((1-(4-chloro-8-(1H-indol-5-yl)-1-oxo-2-phenyl-1,2-dihydroisoquinolin-3-yl)ethyl)amino)pyrido[2,3-d]pyrimidin-5(8H)-one]
6 | 65% | 54% | 88% | 90% | Cc1c[nH]c2ccc(-c3cccc4c(Cl)c([C@H](C)Nc5ncnc6[nH]ccc(=O)c56)n(-c5ccccc5)c(=O)c34)cc12 [Example 74, (S)-4-((1-(4-chloro-8-(3-methyl-1H-indol-5-yl)-1-oxo-2-phenyl-1,2-dihydroisoquinolin-3-yl)ethyl)amino)pyrido[2,3-d]pyrimidin-5(8H)-one]
7 | 14% | 1% | 43% | 20% | CC(C)C1CCN(c2cccc3c(Cl)c([C@H](C)Nc4ncnc5[nH]ccc(=O)c45)n(-c4ccccc4)c(=O)c23)CC1 [Example 76, (S)-4-((1-(4-chloro-8-(4-isopropylpiperidin-1-yl)-1-oxo-2-phenyl-1,2-dihydroisoquinolin-3-yl)ethyl)amino)pyrido[2,3-d]pyrimidin-5(8H)-one]
8 | 45% | 9% | 78% | 64% | C[C@H](Nc1ncnc2[nH]ccc(=O)c12)c1c(Cl)c2cccc(N3CCC(NC(=O)OC(C)(C)C)CC3)c2c(=O)n1-c1ccccc1 [Example 77, tert-butyl(S)-(1-(4-chloro-1-oxo-3-(1-((5-oxo-5,8-dihydropyrido[2,3-d]pyrimidin-4-yl)amino)ethyl)-2-phenyl-1,2-dihydroisoquinolin-8-yl)piperidin-4-yl) carbamate]

The next lines start with the compound.

Row | SMILES | inhibition at 0.01 µM [1] | inhibition at 0.01 µM [2] | inhibition at 0.1 µM [1] | inhibition at 0.1 µM [2]
9 | Cc1cc(-c2cccc3c(Cl)c([C@H](C)Nc4ncnc5[nH]ccc(=O)c45)n(-c4ccccc4)c(=O)c23)cnc1O [Example 58, (S)-4-((1-(4-chloro-8-(6-hydroxy-5-methylpyridin-3-yl)-1-oxo-2-phenyl-1,2-dihydroisoquinolin-3-yl)ethyl)amino)pyrido[2,3-d]pyrimidin-5(8H)-one] | 95% | 87% |  | 
10 | C[C@H](Nc1ncnc2[nH]ccc(=O)c12)c1c(Cl)c2cccc(-c3cncnc3C3CCCC3)c2c(=O)n1-c1ccccc1 [Example 59, (S)-4-((1-(4-chloro-8-(4-cyclopentylpyrimidin-5-yl)-1-oxo-2-phenyl-1,2-dihydroisoquinolin-3-yl)ethyl)amino)pyrido[2,3-d]pyrimidin-5(8H)-one] | 70% | 32% |  | 
11 | C[C@H](Nc1ncnc2[nH]ccc(=O)c12)c1c(Cl)c2cccc(-c3ccc4c(c3)OCO4)c2c(=O)n1-c1ccccc1 [Example 60, (S)-4-((1-(8-(benzo[d][1,3]dioxol-5-yl)-4-chloro-1-oxo-2-phenyl-1,2-dihydroisoquinolin-3-yl)ethyl)amino)pyrido[2,3-d]pyrimidin-5(8H)-one] | 94% | 74% |  | 
12 | COc1ncc(-c2cccc3c(Cl)c([C@H](C)Nc4ncnc5[nH]ccc(=O)c45)n(-c4ccccc4)c(=O)c23)cc1[N+](=O)[O-] [Example 61, (S)-4-((1-(4-chloro-8-(6-methoxy-5-nitropyridin-3-yl)-1-oxo-2-phenyl-1,2-dihydroisoquinolin-3-yl)ethyl)amino)pyrido[2,3-d]pyrimidin-5(8H)-one] | 89% | 67% |  | 
13 | C[C@H](Nc1ncnc2[nH]ccc(=O)c12)c1c(Cl)c2cccc(-c3ccc(F)cc3)c2c(=O)n1-c1ccccc1 [Example 63, (S)-4-((1-(4-chloro-8-(4-fluorophenyl)-1-oxo-2-phenyl-1,2-dihydroisoquinolin-3-yl)ethyl)amino)pyrido[2,3-d]pyrimidin-5(8H)-one] | 95% | 44% | 96% | 84%
14 | COc1ccc(-c2cccc3c(Cl)c([C@H](C)Nc4ncnc5[nH]ccc(=O)c45)n(-c4ccccc4)c(=O)c23)cc1 [Example 64, (S)-4-((1-(4-chloro-8-(4-methoxyphenyl)-1-oxo-2-phenyl-1,2-dihydroisoquinolin-3-yl)ethyl)amino)pyrido[2,3-d]pyrimidin-5(8H)-one] | 93% | 51% | 101% | 86%
15 | C[C@H](Nc1ncnc2[nH]ccc(=O)c12)c1c(Cl)c2cccc(C3CC3)c2c(=O)n1-c1ccccc1 [Example 66, (S)-4-((1-(4-chloro-8-cyclopropyl-1-oxo-2-phenyl-1,2-dihydroisoquinolin-3-yl)ethyl)amino)pyrido[2,3-d]pyrimidin-5(8H)-one] | 72% | 59% | 103% | 92%
16 | C[C@H](Nc1ncnc2[nH]ccc(=O)c12)c1c(Cl)c2cccc(/C=C/c3ccccc3)c2c(=O)n1-c1ccccc1 [Example 70, (S,E)-4-((1-(4-chloro-1-oxo-2-phenyl-8-styryl-1,2-dihydroisoquinolin-3-yl)ethyl)amino)pyrido[2,3-d]pyrimidin-5(8H)-one] | 10.2% | -1.2% | 29.9% | 23.6%
17 | C[C@H](Nc1ncnc2[nH]ccc(=O)c12)c1c(Cl)c2cccc(-c3ccc(Cl)c(Cl)c3)c2c(=O)n1-c1ccccc1 [Example 71, (S)-4-((1-(4-chloro-8-(3,4-dichlorophenyl)-1-oxo-2-phenyl-1,2-dihydroisoquinolin-3-yl)ethyl)amino)pyrido[2,3-d]pyrimidin-5(8H)-one] | 17% | 16% | 44% | 41%
18 | C[C@H](Nc1ncnc2[nH]ccc(=O)c12)c1c(Cl)c2cccc(-c3ccc(N(C)C)cc3)c2c(=O)n1-c1ccccc1 [Example 72, (S)-4-((1-(4-chloro-8-(4-(dimethylamino)phenyl)-1-oxo-2-phenyl-1,2-dihydroisoquinolin-3-yl)ethyl)amino)pyrido[2,3-d]pyrimidin-5(8H)-one] | 99% | 58% | 112% | 96%
19 | C[C@H](Nc1ncnc2[nH]ccc(=O)c12)c1c(Cl)c2cccc(-c3ccc(N4CCOCC4)cc3)c2c(=O)n1-c1ccccc1 [Example 75, (S)-4-((1-(4-chloro-8-(4-morpholinophenyl)-1-oxo-2-phenyl-1,2-dihydroisoquinolin-3-yl)ethyl)amino)pyrido[2,3-d]pyrimidin-5(8H)-one] | 79% | 82% | 86% | 99%
20 | C[C@H](Nc1ncnc2[nH]ccc(=O)c12)c1c(Cl)c2cccc(N3CCN(c4ccccc4O)CC3)c2c(=O)n1-c1ccccc1 [Example 78, (S)-4-((1-(4-chloro-8-(4-(2-hydroxyphenyl)piperazin-1-yl)-1-oxo-2-phenyl-1,2-dihydroisoquinolin-3-yl)ethyl)amino)pyrido[2,3-d]pyrimidin-5(8H)-one] | 46% | 18% | 78% | 56%
